Measured values reported in publication PMC8287724, “Reducing Auditory Nerve Excitability by Acute Antagonism of Ca^2+-Permeable AMPA Receptors” (Frontiers in Synaptic Neuroscience, 2021).

Experiments:
[1] = tested on: ANF postsynaptic terminals; parameters: method as in Puel et al., 1994; settings: chemical lesion, basal cochlear turn perfusion ref Puel et al., 1994; cited from earlier work
[2] = tested on: ribbon synapses and ANF dendrites in the inner spiral plexus; assay: Apical cochlear perfusion of kainic acid, immunohistofluorescence and confocal microscopy; assay type: in vivo, guinea pig; settings: 2 mM in artificial perilymph, apical perfusion of scala tympani
Protocol: Following cardiac perfusion of 4% PFA in 0.1 M phosphate buffer and cervical dislocation, the temporal bone was immediately harvested, and the cochlea was isolated. Each cochlea was post-fixed for 20 min at 4°C in a dish with 4% PFA, where a small fenestration was made in the round window, oval window, and the apex of each cochlea to gently flush with 1 mL of fixative. Each cochlea was then decalcified in 10% EDTA at room temperature for 6 h, exchanging EDTA every 2 h. The decalcified outer bone was removed to reveal the underlying cochlear spiral. Small pieces of cochlear turns were placed in buffer overnight at 4°C in Triton X-100 with donkey serum. […]
The method of apical intracochlear drug delivery has previously been well-detailed (Lichtenhan et al., [2016a]). […] Response waveforms were recorded immediately prior to apical drug perfusion to establish a baseline, throughout perfusion which took 6 min, and then immediately after perfusion, from a round window electrode. […]

[3] = tested on: cochlear afferent synapses; parameters: method as in earlier work; settings: ref Robertson, 1983; Puel et al., 1998; Furman et al., 2013; Hickman et al., 2020; cited from earlier work

Compound	effect of pre-perfusion on ANF terminal swelling [1]	further results
NC(CCCP(=O)(O)O)C(=O)O [D-AP5]	not	
O=c1[nH]c2cc([N+](=O)[O-])c([N+](=O)[O-])cc2[nH]c1=O [DNQX]	prevented	
C=C(C)[C@H]1CN[C@H](C(=O)O)[C@H]1CC(=O)O [KA, kainic acid]		effect on innervation and ribbon synapses [2]: void of innervation in the ISP and ribbon synapse disintegration
O=C(O)c1cc(=O)c2ccccc2[nH]1 [kynurenic acid]		effect on synapse loss and osmotic damage after synaptopathic noise exposure [3]: blocked
